Data on two compounds can be found in US6562381B2, “(+)-Cycloolivil as antioxidant obtained from natural source namely stereospermum personatum” (Council of Scientific and Industrial Research, priority 2001, dated 2003).

Experiment [1] can be described thus: In vitro free radical (DPPH) scavenging antioxidant potency. The experiment is classed as biochemical. The following applies: for 50% Radical scavenging concentration: DPPH radical, tris-HCl buffer pH 7.4, 45 minutes in dark, absorbency at 517 nm, triplicate. As for the experimental part: Antioxidant activity of the compounds was tested for its capacity/potency to scavenge most widely used free radical, 1,1-diphenyl-2-picryl hyrazyl radical (DPPH). […] 200 μl of test compounds were reconstituted to 1 ml in tris-HCl buffer (pH 7.4). […] After incubation for 45 minutes in dark, the absorbency at 517 nm was recorded. Percent radical scavenging activity was calculated accordingly. All the readings were taken in triplicate.
Background: DPPH is a stable violet radical that fades when it is reduced.

The conditions of experiment [2]: known activity, Chem. Pharm. Bull, 1986, 34, 3514-17; cited from earlier work.
Experiment [3] relates to Cyclic AMP phosphodiesterase. The following applies: known activity, Chem. Pharm. Bull, 1981, 29, 3586-92; cited from earlier work.

`COc1cc([C@H]2c3cc(O)c(OC)cc3C[C@@](O)(CO)[C@@H]2CO)ccc1O` [(+)-Cycloolivil]: the “50% Radical scavenging concentration” value in experiment [1] was found to be 21.74 µg/mL. Further, in experiment [1] (comparison in words), the “Antioxidant activity compared with reference drugs Probucol and alpha-tocopherol” value was “better than the above mentioned reference drugs”. Besides, in experiment [2], the “Ca^2+ antagonist activity” value is recorded as “Ca^2+ antagonist activity”. The “Cyclic AMP phosphodiesterase inhibition” value in experiment [3] was “inhibition”.
In the case of `Cc1c(C)c2c(c(C)c1O)CCC(C)(CCCC(C)CCCC(C)CCCC(C)C)O2` (stereo not drawn) [DL α-Tocopherol, reference compound], the “50% Radical scavenging concentration” value in experiment [1] was found to be 47.80 µg/mL.
